Data reported in patent US11732277B2, “Cellular production of pure iron oxide nanoparticles” (NANOBACTERIE, priority 2018, dated 2023).
Read-outs that look alike come from different tables or passages of the source.

Key:
[1] = tested on: MSR-1 magnetotactic bacteria; type: cell-based; conditions: for Growth ratio (ODD13/ODD6) / Optical density following pre-growth (ODD6) / Optical density following growth (ODD13): condition 4, individual vitamins; for Optical density following pre-growth (ODD6) / Optical density following growth (ODD13): OD at 565 nm; for Optical density following pre-growth (ODD6): day 6; for Optical density following growth (ODD13): day 13; for OD565 nmD13/OD565 nmD6: condition 4, individual vitamin replacing yeast extract, mineral elixir CB3, 50 mL tubes
Procedure: Optical density measurements of suspensions of whole magnetotactic bacteria to assess bacterial growth: The optical density of the different suspensions of magnetotactic bacteria was measured at 565 nm, designated as OD565 nm, using a Secomam UviLine9400 spectrophotometer. The value of OD565 nm is proportional to the concentrations of bacteria in the suspensions. […]
This example describes the experimental protocol used to determine the reduced medium replacing the yeast extract that enables the growth of MSR-1 magnetotactic bacteria and the synthesis of magnetosomes by these bacteria. In this example we used non-pharmaceutical grade chemicals for the preparation of the growth media. The compositions of pre-growth and growth media, in one liter of de-ionized water, are indicated in table 2 (condition 2), table 3 (condition 3), and table 4 (condition 4). During the first day of the experiment (D1), a first step consists in collecting the tubes of 15 ml containing 5 mL of MSR-1 cellular stock tube from the freezer at −80° C., in thawing the tubes by letting them at room temperature for 10 minutes. In a hood, we collected from these tubes 100 μl comprising 5.10^6 MSR-1 magnetotactic bacteria that we have inserted in a 50 mL tube comprising 8 mL of filtered pre-growth medium of either condition 2 (table 2), condition 3 (table 3), or condition 4 (table 4). The 50 ml tubes were incubated for 6 days between D1 and D6 in an incubator at 29.5° C. under shaking conditions at 150 rpm. A second step consisted in adding an iron source to the growth media to enable the synthesis of magnetosomes by MSR-1 bacteria. After 6 days of pre-growth, at D6, the 50 ml tubes were placed in a hood. 30 ml of filtered growth medium were then added to the 50 mL tubes (condition 2, table 2, condition 3, table 3, condition 4, table 4) at D6 and the bacteria grew between D6 and D13. […] In contrast, the magnetic response is 0 for conditions Vit5X, Vit10X (condition 3) and very low for conditions CP, I, AA, P (condition 4). […]

[2] = tested on: MSR-1 magnetotactic bacteria; type: cell-based; conditions: for magnetic response: condition 4, individual vitamin replacing yeast extract, at D13; for Magnetic response (%): condition 4, individual vitamins, D13
Procedure: Measurement of the magnetic response of living magnetotactic bacteria using optical microscopic observations of these bacteria under the application of a magnetic field: 1 mL of a suspension of MSR-1 magnetotactic bacteria was centrifugated at 14500 rpm for 10 minutes. The growth medium was removed and replaced by a volume of PBS 0.1× to reach an OD565 nm of 0.5. 1 μL of this suspension of MSR-1 magnetotactic bacteria was deposited on a parallelipedic microscope slide (Menzel-Glaser, 24 mm×60 mm, […]) for microscopic observation using a Zeiss Primo Vert optical microscope with X40 magnification. Four small cubic Neodinium magnets of strength 1.3 T (Supermagnet, N42 W-10-N 10×10×10 mm) were positioned on the microscope's platform at a distance from the suspension of bacteria of ˜2 cm in such a way that it either generated a magnetic field parallel to the position of the observer or to the line between the two binoculars (position 1) or perpendicular to this position (position 2). 20 seconds after positioning the magnet in position 1 or 2, the percentage of bacteria aligned in the direction of the magnetic field was estimated, by considering 200 magnetotactic bacteria. The bacteria that were not aligned in the same direction as the magnetic field generated by the magnet were considered as non-magnetic. Their number is designated as nBNM. The bacteria that were aligned in the direction of the magnetic field generated by the magnet were considered as magnetic. Their number was designated as nBM. The percentage of magnetic bacteria was then given by nBM/(nBM+nBNM). A positive magnetic response of magnetotatic bacteria corresponded to nBM/(nBM+nBNM)>0.5. A negative magnetic response of magnetotatic bacteria corresponds to nBM/(nBM+nBNM)<0.5.
In some cases, the percentage of magnetic bacteria can be measured by optical observation under microscope in the presence of a magnetic field.

| Molecule | Growth ratio (ODD13/ODD6) [1] | Optical density following pre-growth (ODD6) [1] | Optical density following growth (ODD13) [1] | magnetic response [2] | Magnetic response (%) [2] | OD565 nmD13/OD565 nmD6 [1] | OD565 nmD13/OD565 nmD6 ([1]; listed as thiamin HCl, HCl) | magnetic response ([2]; listed as thiamin HCl, HCl) |
| --- | --- | --- | --- | --- | --- | --- | --- | --- |
| Nc1ccc(C(=O)O)cc1 [AA, p-Aminobenzoic acid] | 6.7 | 0.12 | 0.8 | very low | 20% |  |  |  |
| O=C(O)CCCC[C@@H]1SC[C@@H]2NC(=O)N[C@@H]21 [Biotin] |  |  |  | 90% | >90% |  |  |  |
| O[C@H]1[C@H](O)[C@@H](O)[C@H](O)[C@@H](O)[C@H]1O [I, Inositol] | 2.4 | 0.33 | 0.8 | very low | 20% |  |  |  |
| Cc1ncc(CO)c(CO)c1O.Cl [P, Pyridoxine HCl] | 2.8 | 0.25 | 0.7 | very low | 5% |  |  |  |
| Cc1cc2nc3c(=O)[nH]c(=O)nc-3n(C[C@H](O)[C@H](O)[C@H](O)CO)c2cc1C [Riboflavin] | 4.8 | 0.19 | 0.92 | 90% | >90% | 4.8 |  |  |
| Nc1nc2ncc(CNc3ccc(C(=O)N[C@@H](CCC(=O)O)C(=O)O)cc3)nc2c(=O)[nH]1 [folic acid, Folic acid] | 2.9 | 0.4 | 1.14 | 90% | 50% | 2.9 |  |  |
| O=C(O)c1cccnc1 [nicotinic acid, Nicotinic acid] | 2.4 | 0.27 | 0.65 | 90% | >90% | 2.4 |  |  |
| Calcium pantothenate [CP] | 3.3 | 0.3 | 0.98 | very low | 5% |  |  |  |
| Thiamine HCl | 5.8 | 0.26 | 1.51 |  | >90% |  | 5.8 | 90% |
